{"source": "paper PMC8022858", "about": "“Discovery of bone morphogenetic protein 7-derived peptide sequences that attenuate the human osteoarthritic chondrocyte phenotype” (Molecular Therapy. Methods & Clinical Development, 2021)", "key": {"[1]": {"system": "CAGA12 reporter (SMAD3 dependent) in SW1353 chondrocytic cells", "assay": "CAGA12 firefly luciferase reporter assay", "format": "cell-based", "conditions": "8 h peptide exposure, firefly normalized to Gaussia luciferase, relative to control (Figure 5B)", "protocol": "Figure 5 Molecular characterization of peptides p[63−82] and p[113−132] (A) A pool of OA-HACs (n = 4 donors) was transfected with a scrambled siRNA or with an NKX3-2 siRNA (100 nM siRNA) and cultured for 24 h. Cultures were then exposed to peptide p[63−82] or p[113−132] (100 nM peptide). Samples were harvested 24 h later and analyzed for the expression of the indicated mRNAs (normalized to 28S rRNA). (B) SW1353 chondrocytic cells were transfected with BRE (SMAD1/5/8 reporter) or CAGA12 (SMAD2/3 reporter) firefly luciferase-reporter plasmids. A CMV-Gaussia plasmid was cotransfected as a transfection control. Cells were then cultured for 24 h and subsequently exposed to control, p[63−82], or p[113−132] for 8 h. Firefly and Gaussia bioluminescence were measured in cells and medium (respectively), and relative light units (RLUs) of firefly luciferase were normalized for the Gaussia luciferase signal. The normalized firefly luciferase signal of the control condition was set at 1, and peptide conditions were calculated relative to the control condition (FL/GL). Error bars represent mean ± SEM; statistical significance for peptide conditions versus siScrambled or siNKX3-2 (A) or control condition (B) as determined by unpaired two-tailed Student’s t test is represented as ∗p < 0.05, ∗∗p < 0.01, and ∗∗∗p < 0.001. […]"}, "[2]": {"system": "OA-HACs", "assay": "PGE2 EIA in OA-HAC culture supernatant", "format": "cell-based, human", "conditions": "three individual OA-HAC donors, 100 nM peptide, 24 h (Figure 2F)", "protocol": "(§1) Figure 2 Bioactivity of BMP7-derived peptides p[63−82] and p[113−132] on OA-HACs Complete peptide library screening quantitative real-time PCR dataset for peptides p[63−82] and p[113−132] is presented. (A) SOX9, COL2A1, and NKX3-2 mRNA expression in the 18 OA-HAC pool exposed to 1,000, 100, 10, or 1 nM of peptide p[63−82] and p[113−132] is shown and presented relative to control (black bars) and alongside full-length BMP7 (white bars). (B) Similar to (A) but for chondrocyte hypertrophy-associated genes RUNX2, COL10A1, and ALPL. (C) Similar to (A) but for cartilage extracellular matrix remodeling-associated genes MMP13 and ADAMTS5 and inflammation-related genes COX-2 and IL-6. […] (G) In the same OA-HAC pool of 18 OA-HAC donors from the peptide library screening, sequence dependency of peptides p[63−82] and p[113−132] was determined by exposing the OA-HAC pool to scrambled versions of peptides p[63−82] and p[113−132] […] Error bars represent mean ± SEM, and statistical significance for peptide conditions or BMP7 versus control condition as determined by unpaired two-tailed Student’s t test is represented as ∗p < 0.05, ∗∗p < 0.01, and ∗∗∗p < 0.001.\nPGE2 levels were determined in the culture supernatant. PGE2 concentration was determined by a standardized enzyme immunoassay (EIA) according to the manufacturer’s protocol (Cayman Chemical)."}, "[3]": {"system": "OA-HACs", "assay": "sGAG content of OA-HAC cultures (DMB assay)", "format": "cell-based, human", "conditions": "three individual OA-HAC donors, 100 nM peptide, 24 h, normalized to total protein (Figure 2D)", "protocol": "as §1\nThe sGAG content was measured using a modified dimethyl methylene blue (DMB) assay.[58] The absorbance of samples was read at 540 and 595 nm using a spectrophotometer (Multiskan FC; Thermo Fisher Scientific). […]"}}}
{"substance": "H-SVLYFDDSSNVILKKYRNMV-OH [p[113−132]]", "values": [{"measurement": "CAGA12-reporter activity", "setting": "[1]", "result": "diminished"}, {"measurement": "prostaglandin E2 (PGE2) levels in culture supernatant", "setting": "[2]", "result": "significant decrease"}]}
{"substance": "H-AAYYSEGESAFPLNSYMNAT-OH [p[63−82]]", "values": [{"measurement": "CAGA12-reporter activity", "setting": "[1]", "result": "diminished"}, {"measurement": "sulfated glycosaminoglycan (sGAG) content", "setting": "[3]", "result": "increased"}, {"measurement": "prostaglandin E2 (PGE2) levels in culture supernatant", "setting": "[2]", "result": "significant decrease"}]}
